Assay results taken from patent US20260248774A1, “INHIBITORS OF BACTERIAL TYPE III SECRETION SYSTEM” (MICROBIOTIX, INC., priority 2022, published 2026).
In brackets after ≈: the same amount, converted by molar mass. Where two headings read alike, the source gives them in different places.

Assays:
[1] = test system: T3SS-mediated translocation of ExoU by P. aeruginosa strain MDM1561 (PA99U) into CHO cells; assay: P. aeruginosa ExoU-dependent CHO cell killing assay for T3SS-mediated translocation; type: cell-based, Pseudomonas aeruginosa; details: for EC50: read-out: Translocation EC50; for potency of inhibition of T3SS-mediated translocation: assessment in text on Table 1
Source text: P. aeruginosa ExoU-Dependent CHO Cell Killing.

[2] = test system: P. aeruginosa T3SS-mediated secretion of ExoS-β-lactamase fusion protein; assay: Effector-β-lactamase (ExoS-βLA) reporter assay of T3SS-mediated secretion; type: cell-based, Pseudomonas aeruginosa; details: read-out: ExoS-BLA IC50
Source text: Effector-β-Lactamase (βLA) Reporter Assay of T3SS-Mediated Secretion with an Absorbency Signal.
A gene encoding the exoS promoter/regulatory region and an ExoS-β-lactamase (βLA) fusion protein (comprised of the full length P. aeruginosa T3SS effector ExoS fused in reading frame to the TEM-1 β-lactamase gene lacking secretion signal codons) was constructed by splicing by overlap extension PCR (SOE-PCR) (Choi and Schweizer, 2005, BMC Microbiol., 5:30), sequence confirmed, cloned into miniCTX and introduced into P. aeruginosa strain PAO1 to generate strains MDM1746 and MDM1838 as previously described for strain MDM1710 (Bowlin et al., 2014, Antimicrob Agents Chemother., 58:2211-2220). Secretion of ExoS-β-lactamase fusion protein following EGTA addition to induce the T3SS operons was detected by measuring the hydrolysis of the chromogenic β-lactamase substrate nitrocefin in clear 96-well microplates in a modification of a previously described assay (Lee, et al., 2007, Infect. Immun., 75:1089-98). Cells of strain MDM1746, or negative control MDM1838 (which fails to carry out T3SS secretion due to ΔpscF), were sub-cultured in the morning from overnight growths in LBG into 0.1 ml of LBGE with or without test compounds and grown for 150 min. Nitrocefin (100 μg/mL final) was added, and A490 measurements taken every minute for 15 min in a Victor^3V 1420 Multilabel HTS Counter (PerkinElmer). Slopes were calculated as a relative measure of the quantity of the effector-βLA fusion protein secreted and were absolutely dependent on induction with EGTA, and the presence of a functional pscF gene in the P. aeruginosa cells. Typical signal: background ratios were 6-10.

[3] = test system: P. aeruginosa T3SS-mediated secretion (exoT-luxCDABE reporter strain MDM852); assay: Luciferase (exoT-lux) transcriptional reporter assay of T3SS-mediated secretion; type: cell-based, Pseudomonas aeruginosa
Source text: Luciferase Transcriptional Reporter Assay of T3SS-Mediated Secretion with a Luminescent Signal.
A transcriptional fusion of the Photorhabdus luminescens lux operon (luxCDABE) to P. aeruginosa PAO1 T3SS effector gene exoT (PA0044) was constructed and used to build strain MDM852 as described previously (Aiello et al., 2010, Antimicrob Agents Chemother, 54:1988-1999). Induction of T3SS operons by Ca^++ depletion due to EGTA addition results in secretion of the T3SS negative regulator ExsE and the production of high levels of T3SS components including the luxCDABE gene products, which results in luminescence that is easily detected by a microplate reader. Inhibition of T3SS-mediated secretion of the negative regulator ExsE by a small molecule inhibitor causes reduced production of luxCDABE gene products and reduced luminescence. For inhibitor IC50 testing, compounds were added to a 96-well microplate in a concentration dilution series. Reporter strain MDM852 was grown at 37° C. in LBG to OD600 ~0.025-0.05, transferred into the microplate (50 uL/well) containing test compounds and EGTA (5 uL of 0.1 M stock solution), which was covered with a translucent gas-permeable seal (Abgene, Inc., Cat. No. AB-0718). […] Plates were incubated at room temperature for 300 min. Then, luminescence was measured in an Envision Multilabel microplate reader (PerkinElmer). The screening window coefficient, Z′-factor (see Zhang, et al., 1999, J. Biomol. Screen., 4:67-73), defined as the ratio of the positive and negative control separation band to the signal dynamic range of the assay, averaged 0.7 for the assay.

[4] = Kinetic aqueous solubility (nephelometric assay); type: physicochemical; details: for Sol: Table 1; for solubility kinetic: kinetic from dmso stock, Table 9, kinetic solubility in water (nephelometric assay)
Source text: Solubility. The maximum aqueous solubility of analogs will be initially determined by nephelometry using a published method (44).

[5] = Mammalian cytotoxicity (CC50), MTS conversion; type: cell-based, human; details: human
Experimental: (§1) Determination of Mammalian Cytotoxicity.
(§2) Following incubation for 3 days at 37° C. in VP-SFM, cell viability was measured with the vital tetrazolium salt stain 3-(4,5-dimethylthiazol-2-yl)-2,5 diphenyltetrazolium bromide according to the manufacturer's instructions (Promega, Madison, Wisconsin). Values were determined in triplicate using dilutions of inhibitory compound from 100 μM to 0.2 μM.

HeLa cells = assay: Mammalian cytotoxicity (CC50), MTS conversion; type: cell-based, human; details: assessment in text on Table 1
Experimental: as §1, §2

[6] = Single dose pharmacokinetic (PK) determination in mice; set-up: species or system CD-1 mice; details: in vivo
[7] = test system: T3SS translocation, clinical isolates of Pseudomonas aeruginosa
[8] = read-out: LUX Sec IC50, Table 1
[9] = HeLa cells, Table 1, HeLa, read-out: Cytotox-HeLa CC50
[10] = Table 9, cytotoxicity vs. HeLa cells, read-out: Cytotox CC50

| SMILES | EC50 ([1]; Table 1) [µM] | IC50 ([2]; Table 1) [µM] | IC50 [3, 8] [µM] | CC50 at 3 days [5, 10] [µM] | also measured |
| --- | --- | --- | --- | --- | --- |
| CC(Oc1ccc(Cl)cc1Cl)C(=O)NCc1ccc2c(c1)OCO2 (centres unmarked) [MBX-1641, N-(benzo[d][1,3]dioxol-5-ylmethyl)-2-(2,4-dichlorophenoxy)propanamide, reference compound] | 15 | 10 | 4.7 | – | EC50 ([1]; Table 6): 15 µM; IC50 ([2]; Table 6): 10 µM; IC50 ([3]; read-out: LUX IC50, Table 6): 4.7 µM |
| CCC(Oc1ncc(Cl)cc1Cl)C(=O)NCc1ccc2c(c1)OCO2 (centres unmarked) [MBX-2263] | 17 | 2 | 2.7 | – | Sol [4]: 25 µM; solubility for formulation ([4]; assessment in text on Table 1): not soluble enough; CC50 at 3 days [5, 9]: > 100 µM |
| CCC(Oc1ncc(Cl)cc1Cl)C(=O)NCc1ccc(F)cc1 (centres unmarked) [MBX-2264] | > 35 | 2 | 2 | – | Sol [4]: 200 µM; potency of inhibition of T3SS-mediated translocation [1]: not quite potent enough; CC50 at 3 days [5, 9]: 85 µM |
| CCC(Oc1ncc(Cl)cc1Cl)C(=O)NCc1ccc2sccc2c1 (centres unmarked) [MBX-2359, reference compound] | – | 1.5 | 1.3 | – | IC50 ([2]; Table 6): 1.5 µM; IC50 ([3]; read-out: LUX IC50, Table 6): 1.3 µM |
| CC(Oc1ccc(Cl)cc1Cl)C(=O)NCc1cc2ccccc2[nH]1 (centres unmarked) [MBX-2624] | 17 | 9 | 8.7 | – | Sol [4]: 100 µM; CC50 at 3 days [5, 9]: 9 µM; cytotoxicity (HeLa cells): exhibit cytotoxicity |
| CC(Oc1ccc(Cl)cc1Cl)C(=O)NC(CO)c1ccc(F)cc1 (centres unmarked) [MBX-2625] | 22 | 5 | 7.1 | – | – |
| CC(Oc1ccc(Cl)cc1Cl)C(=O)NCC(O)c1ccc(F)cc1 (centres unmarked) [MBX-2785] | 25 | 15 | 18 | – | potency of inhibition of T3SS-mediated translocation [1]: not quite potent enough |
| CC(=O)Nc1ccc(CCNC(=O)C(C)Oc2ccc(Cl)cc2Cl)cc1 (centres unmarked) [MBX-2837] | 13 | 9 | 3.5 | – | – |
| CC[C@@H](Oc1ncc(Cl)cc1Cl)C(=O)NCc1ccc2cc(CN(C)C)[nH]c2c1 [MBX-2867] | 5.8 | 1.3 | 1.6 | – | Sol [4]: 3000 µM; CC50 at 3 days [5, 9]: 30 µM; cytotoxicity (HeLa cells): exhibit cytotoxicity |
| CC[C@@H](Oc1ncc(Cl)cc1Cl)C(=O)NC(CO)Cc1ccc(F)cc1 (some centres unmarked) [MBX-3323] | 13 | 5 | 5.2 | – | potency of inhibition of T3SS-mediated translocation [1]: not quite potent enough |
| CC[C@@H](Oc1ncc(Cl)cc1Cl)C(=O)NCCc1ccc(NC(C)=O)cc1 [MBX-3337] | 4.8 | 1.2 | 1.4 | – | – |
| CC[C@@H](Oc1ncc(Cl)cc1Cl)C(=O)NCc1ccc2cc(C(=O)N3CCOCC3)[nH]c2c1 [MBX-3458] | 5.2 | 0.9 | 3.7 | – | Sol [4]: 25 µM; CC50 at 3 days [5, 9]: 100 µM; half-life in mice [6]: short half-lives in mice |
| CC[C@@H](Oc1ncc(Cl)cc1Cl)C(=O)NCc1cccc(CN)c1 [MBX-4565] | 20 | 9 | 8.3 | – | – |
| CC[C@@H](Oc1ncc(Cl)cc1Cl)C(=O)N[C@@H](CO)Cc1ccc(F)cc1 [MBX-4567] | 60 | 14 | 8.5 | – | potency of inhibition of T3SS-mediated translocation [1]: not quite potent enough |
| CC[C@@H](Oc1ncc(Cl)cc1Cl)C(=O)NCc1cccc(C(=O)NC2CNC2)c1 [MBX-5031] | 1.7 | 1.7 | 0.2 | – | – |
| CC[C@@H](Oc1ncc(Cl)cc1Cl)C(=O)NCc1cccc(C(=O)NC2CN(CCC(=O)[O-])C2)c1.[Li+] [MBX-5427A] | – | – | – | ≥ 200 | solubility kinetic [4]: 100 µM |
| CC[C@@H](Oc1ncc(Cl)cc1Cl)C(=O)NCc1cccc(C(=O)NC2CN(CCCC(=O)[O-])C2)c1.[Li+] [MBX-5430A] | – | – | – | ≥ 200 | solubility kinetic [4]: 200 µM |
| CC[C@@H](Oc1ncc(Cl)cc1Cl)C(=O)NCc1cccc(NC(=O)NC2CN(CCC(=O)[O-])C2)c1.[Li+] [MBX-5442A] | – | – | – | ≥ 200 | solubility kinetic [4]: 200 µM |
| CC[C@@H](Oc1ncc(Cl)cc1Cl)C(=O)NCc1cccc(NC(=O)NC2CC3(C2)CN(CCC(=O)O)C3)c1 [MBX-5452A] | 2.7 | – | – | – | EC50 ([1]; Table 6): 2.7 µM; EC50 [7]: 0.74 µg/mL (≈ 1.31 µM) |
| CC[C@@H](Oc1ncc(Cl)cc1Cl)C(=O)NCc1cccc(C(=O)NC2CN(CC(=O)[O-])C2)c1.[Li+] [MBX-5454A] | – | – | – | ≥ 100 | solubility kinetic [4]: 200 µM |
| CC[C@@H](Oc1ncc(Cl)cc1Cl)C(=O)NCc1cccc(CNC2CC(C(=O)[O-])C2)c1.[Li+] (some centres unmarked) [MBX-5456A] | – | – | – | 107 | solubility kinetic [4]: 200 µM |
| CC[C@@H](Oc1ncc(Cl)cc1Cl)C(=O)NCc1cccc(NC(=O)NCC2CN(CC(=O)O)C2)c1 [MBX-7438A] | – | – | – | ≥ 200 | – |
| CC[C@@H](Oc1ccc(Cl)c(Cl)c1Cl)C(=O)NCc1cccc(NC(=O)NC2CC3(C2)CN(CC(=O)O)C3)c1 [MBX-7476A] | – | – | – | ≥ 200 | – |
| CC[C@@H](Oc1ccc(Cl)c(Cl)c1Cl)C(=O)NCCc1cccc(NC(=O)NC2CC3(C2)CN(CCC(=O)O)C3)c1 [MBX-7477A] | – | – | – | ≥ 200 | – |
| CC[C@@H](Oc1ccc(Cl)c(Cl)c1Cl)C(=O)NCCc1cccc(NC(=O)NC2CC3(C2)CN(CC(=O)O)C3)c1 [MBX-7478A] | – | – | – | ≥ 200 | – |
| CC[C@@H](Oc1ncc(Cl)cc1Cl)C(=O)NCc1cccc(NC(=O)NCCNCC(=O)O)c1 [MBX-7497A] | – | – | – | ≥ 200 | – |
| CC[C@@H](Oc1ncc(Cl)cc1Cl)C(=O)NCc1cccc(NC(=O)NC2COCC(NCCC(=O)O)C2)c1 (some centres unmarked) [MBX-7531A] | – | – | – | ≥ 200 | – |
